According to patent US8846351B2, “Compositions for enhancing hydroysis of cellulosic material by cellulolytic enzyme compositions” (Novozymes, Inc., priority 2010, dated 2014):
Like-named read-outs stand apart in the source and are kept apart here.

Experiments:
[1] = test system: Trichoderma reesei cellulase composition; format: biochemical; conditions: AVICEL, 1 mM organic compound
Protocol: Microcrystalline cellulose was used as the source of cellulosic material.
The concentration of each organic compound was 1 mM.

[2] = target: T. aurantiacus GH61A polypeptide (Thermoascus aurantiacus, UniProt G3XAP7, N13Y); experiment: PACE analysis of products from PASC incubated with organic compound, Ca(II) and T. aurantiacus GH61A polypeptide at various pH; format: biochemical
Protocol: Polysaccharide-analysis-using-carbohydrate-gel-electrophoresis (PACE) was applied to analyze the products from incubation of cellulose in the presence of Ca(II) and ascorbate, cysteine or gallic acid and the T. aurantiacus GH61A polypeptide.
The mixture was filtered, and the filtrate (90 μl) was subjected to PACE analysis as described below. Buffers were varied to obtain the following pH values: formic acid at pH 4, acetic acid at pH 5, triethylammonium acetate at pH 6-7, and ammonium acetate at pH 8-9.
Carbohydrate products from the reaction were derivatized with 8-aminonaphthalene-1,3,6-trisulfonic acid (ANTS) fluorophore, applied to a polyacrylamide gel, and subjected to PACE, according to protocols adapted from (Goubet et al, 2002, Analytical Biochemistry 300: 53-68). Briefly, the derivatization was conducted by first drying 45 μl of the reaction products in a Jouan RC1010 vacuum concentrator system (Jouan Inc., Vallensbaekvej, Denmark) at 40° C. for about 3 hours, then mixing the dried products with 5 μl of 0.2 M ANTS in 15% acetic acid and 5 μl of 1 M NaBH3CN in DMSO, incubation at 37° C. in a thermomixer overnight followed by exposure to air for about 30 minutes, and then drying in a vacuum concentrator at 40° C. for about 4 hours. The ANTS-labeled samples were mixed with 20 μl of 6 M urea prior to PACE analysis.
Gels were cast according to Goubet et al., 2002, supra. The electrophoresis was performed with an SE 660 vertical electrophoresis system (GE Healthcare, Park Alle, Denmark) in a Tris/Borate buffer system at 200 V for 30 minutes and then at 1000 V for almost 2 hours at +5° C., followed by visualization using a UVP BioImaging System (UVP, LLC, Upland, Calif., USA) with UV transilluminator (Wavelength 365 nm UV-A) and EpiChem Darkroom combined with a camera system using a SYBR Gold™ emission filter (Syngene, Cambridge, United Kingdom).
Densitometry was performed by visual definition of a minimal space containing the band of interest, and integration of total pixel intensity within the space using a series of MatLab® scripts (The Mathworks, Natick, Mass., USA).

[3] = cited from earlier work

Chain of T. aurantiacus GH61A polypeptide (G3XAP7 whole entry N13Y): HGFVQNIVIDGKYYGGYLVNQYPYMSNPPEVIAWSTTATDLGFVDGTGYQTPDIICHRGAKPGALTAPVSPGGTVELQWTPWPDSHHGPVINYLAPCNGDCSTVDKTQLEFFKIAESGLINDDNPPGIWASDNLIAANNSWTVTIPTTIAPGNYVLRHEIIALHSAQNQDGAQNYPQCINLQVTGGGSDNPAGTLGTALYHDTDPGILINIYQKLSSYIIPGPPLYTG

Row | SMILES | organic compound effect(no GH61) ([1]; pH 5.0, 50° C., 7 days) | organic compound effect(no GH61) ([1]; pH 5.0, 50° C., 3 days) | other results
1 | O=C(O)c1ccc(O)c(O)c1 [3,4-dihydroxybenzoic acid] | 0.977±0.0208 |  | 
2 | O=C(O)c1cc(O)cc(O)c1 [3,5-dihydroxybenzoic acid] | greater than 1 |  | 
3 | COc1cc(C=CC(=O)O)ccc1O [4-hydroxy-3-methoxycinnamic acid] | approximately 1 | below 1 | 
4 | N[C@@H](CS)C(=O)O [cysteine] |  |  | products detected on PACE ([2]; PASC, Ca(II), GH61A polypeptide, 50° C., pH at or above the pKa of the compound): products similar to cellodextrins having 1-7 glucosyl units were detected
5 | O=C1OC(C(O)CO)C(=O)C1=O (stereo not shown) [dehydroascorbate] | 1.14±0.00522 | 1.05±0.0058 | 
6 | O=C(O)c1cc(O)c(O)c(O)c1 [gallic acid] |  |  | PACE band intensity as a function of pH (densitometry) ([2]; cellodextrin bands of apparent DP 4, 8 and 9): increased in intensity with increasing pH; PACE product bands at low pH ([2]; lowest pH examined, 3.9): near zero; shape of the increase of PACE band intensity with pH ([2]; pH range about 3.9 to 5.6): sharp increase in product intensity was noted between pH values of 4.5 and 5.5; pKa [3]: 4.5
7 | COC(=O)c1ccc(O)cc1 [methyl-4-hydroxybenzoate] |  |  | organic compound effect(no GH61) ([1]; time not specified (FIG. 1: 3 and 7 days)): slightly inhibited

The next lines start with results.

Row | organic compound effect(no GH61) ([1]; pH 5.0, 50° C., 7 days) | organic compound effect(no GH61) ([1]; pH 5.0, 50° C., 3 days) | SMILES | other results
8 | 0.961±0.0250 | 0.959±0.0162 | O=C(O)c1ccc(O)cc1 [4-hydroxybenzoic acid] | 
9 | above 1 | below 1 | N[C@@H](CCC(=O)O)C(=O)O [glutamic acid] | 
10 | 0.947±0.00189 | 0.989±0.0121 | COC(=O)c1cc(O)c(O)c(O)c1 [methyl-3,4,5-trihydroxybenzoate] | 
11 | 0.766±0.0361 |  | Oc1ccccc1O [pyrocatechol] | 
12 | 0.735±0.00518 |  | Oc1cccc(O)c1O [pyrogallol] | 
13 | below 1 | below 1 | O=C(O)C(O)C(O)C(=O)O (stereo not shown) [tartrate] | 
